Test results published in patent US9227971B2, “Pyrazolo[1,5-a]pyrimidine compounds as mTOR inhibitors” (Merck Sharp & Dohme Corp., priority 2010, dated 2016).

Tests used:
[1] = system: phosphorylated AKT Ser473 (pAKT S473), mTORC2 activity, PC3 cells; experiment: mTOR target engagement assay, immunofluorescent cell-based, pAKT S473 readout (mTORC2 activity); settings: Homo sapiens, PC-3, PC3 cells, compound treatment ninety minutes at 37° C.
Procedure, shortened: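 After blocking, cells were stained overnight at 4 °C with anti-pAKT S473 antibody, then a fluorescent secondary; inhibition was read as reduced fluorescence intensity.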

[2] = system: phosphorylated 4E-BP1 Thr37/46 (p4E-BP1 Thr37/46), mTORC1 activity, PC3 cells; experiment: mTOR target engagement assay, immunofluorescent cell-based, p4E-BP1 Thr37/46 readout (mTORC1 activity); settings: Homo sapiens, PC-3, PC3 cells, compound treatment ninety minutes at 37° C.; read-out: p4E-BP1 Thr37/46 IC50
Procedure, shortened: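 Read-out is fluorescence intensity of immunostained p4E-BP1 Thr37/46 in fixed PC3 cells, fitted to a logistic curve for IC50 with DMSO-only wells as top. Cells had been exposed to serial compound dilutions for ninety minutes at 37° C in 5% FBS medium with 0.25% DMSO.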

`CC(=O)c1c([C@@H]2C[C@H]3CC[C@@H](C2)N3C(=O)c2nnc[nH]2)nc2c(-c3cnc(-c4ccn(C)n4)c(F)c3)cnn2c1N` [Compound 1.1.112, 1-(5-((1R,3s,5S)-8-(4H-1,2,4-triazole-3-carbonyl)-8-azabicyclo[3.2.1]octan-3-yl)-7-amino-3-(5-fluoro-6-(1-methyl-1H-pyrazol-3-yl)pyridin-3-yl)pyrazolo[1,5-a]pyrimidin-6-yl)ethanone] gave an IC50 [1] of 1 to 10 µM and an IC50 [2] of 1 to 10 µM.
With `CC(=O)c1c([C@@H]2C[C@H]3CC[C@@H](C2)N3C(=O)c2nnc[nH]2)nc2c(-c3cnc(-c4ccn(C)n4)c(C)c3)cnn2c1N` [Compound 1.1.114, 1-(5-((1R,3s,5S)-8-(4H-1,2,4-triazole-3-carbonyl)-8-azabicyclo[3.2.1]octan-3-yl)-7-amino-3-(5-methyl-6-(1-methyl-1H-pyrazol-3-yl)pyridin-3-yl)pyrazolo[1,5-a]pyrimidin-6-yl)ethanone] the IC50 [1] was 1 to 10 µM and the IC50 [2] was 1 to 10 µM.
For `CC(=O)C(=O)N1[C@@H]2CC[C@H]1C[C@H](c1nc3c(-c4ccc(-c5ccccc5)nc4)cnn3c(N)c1C(C)=O)C2` [Compound 1.1.117, 1-((1R,3s,5S)-3-(6-acetyl-7-amino-3-(6-phenylpyridin-3-yl)pyrazolo[1,5-a]pyrimidin-5-yl)-8-azabicyclo[3.2.1]octan-8-yl)propane-1,2-dione], the IC50 [1] was 0.1 to 1 µM and the IC50 [2] was 0.1 to 1 µM.
With `CC(=O)c1c([C@@H]2C[C@H]3CC[C@@H](C2)N3C(=O)C(N)=O)nc2c(-c3ccc(-c4ccccc4)nc3)cnn2c1N` [Compound 1.1.118, 2-((1R,3s,5S)-3-(6-acetyl-7-amino-3-(6-phenylpyridin-3-yl)pyrazolo[1,5-a]pyrimidin-5-yl)-8-azabicyclo[3.2.1]octan-8-yl)-2-oxoacetamide] the IC50 [1] was 0.1 to 1 µM and the IC50 [2] was 0.1 to 1 µM.
`CC(=O)c1c([C@@H]2C[C@H]3CC[C@@H](C2)N3C(=O)c2ccn[nH]2)nc2c(-c3ccc(-c4ccn(C)n4)nc3)cnn2c1N` [Compound 1.1.121, 1-(5-((1R,3s,5S)-8-(1H-pyrazole-5-carbonyl)-8-azabicyclo[3.2.1]octan-3-yl)-7-amino-3-(6-(1-methyl-1H-pyrazol-3-yl)pyridin-3-yl)pyrazolo[1,5-a]pyrimidin-6-yl)ethanone] gave an IC50 [1] of 0.001 to 0.1 µM and an IC50 [2] of 0.1 to 1 µM.
Compound `CC(=O)c1c([C@@H]2C[C@H]3CC[C@@H](C2)N3C(=O)N2CCOCC2)nc2c(-c3ccc(-c4ccccc4)nc3)cnn2c1N` [Compound 1.1.122, 1-(7-amino-5-((1R,3s,5S)-8-(morpholine-4-carbonyl)-8-azabicyclo[3.2.1]octan-3-yl)-3-(6-phenylpyridin-3-yl)pyrazolo[1,5-a]pyrimidin-6-yl)ethanone] has an IC50 [1] of 1 to 10 µM and an IC50 [2] of 1 to 10 µM.
`CC(=O)c1c([C@@H]2C[C@H]3CC[C@@H](C2)N3C(=O)c2nnc[nH]2)nc2c(-c3cnn(-c4ccc(F)cc4)c3)cnn2c1N` [Compound 1.1.123, 1-(5-((1R,3s,5S)-8-(4H-1,2,4-triazole-3-carbonyl)-8-azabicyclo[3.2.1]octan-3-yl)-7-amino-3-(1-(4-fluorophenyl)-1H-pyrazol-4-yl)pyrazolo[1,5-a]pyrimidin-6-yl)ethanone] showed an IC50 [1] of 0.1 to 1 µM and an IC50 [2] of 1 to 10 µM.
Compound `COc1ccc(-c2ccc(-c3cnn4c(N)c(C(C)=O)c([C@@H]5C[C@H]6CC[C@@H](C5)N6C(=O)c5nnc[nH]5)nc34)cn2)cc1C#N` [Compound 1.1.124, 5-(5-(5-((1R,3s,5S)-8-(4H-1,2,4-triazole-3-carbonyl)-8-azabicyclo[3.2.1]octan-3-yl)-6-acetyl-7-aminopyrazolo[1,5-a]pyrimidin-3-yl)pyridin-2-yl)-2-methoxybenzonitrile] has an IC50 [1] of 0.1 to 1 µM and an IC50 [2] of 0.1 to 1 µM.
For `COc1ccc2ncc(-c3cnn4c(N)c(C(C)=O)c([C@@H]5C[C@H]6CC[C@@H](C5)N6C(=O)c5nnc[nH]5)nc34)cc2c1` [Compound 1.1.125, 1-(5-((1R,3s,5S)-8-(4H-1,2,4-triazole-3-carbonyl)-8-azabicyclo[3.2.1]octan-3-yl)-7-amino-3-(6-methoxyquinolin-3-yl)pyrazolo[1,5-a]pyrimidin-6-yl)ethanone], the IC50 [1] was 1 to 10 µM and the IC50 [2] was 0.1 to 1 µM.
